According to PMC8308845, “Discovery of Novel Chemical Series of OXA-48 β-Lactamase Inhibitors by High-Throughput Screening” (Pharmaceuticals, 2021):

molecular target: T1, OXA-48 (Klebsiella pneumoniae, UniProt Q6XEC0); experiment: OXA-48 primary enzymatic assay (nitrocefin substrate, fluorescence-quenching readout); type: biochemical; conditions: AC50 ratio; parent ID3 for ID6, parent ID2 for 3 and 5–9
T1 construct: made in house; host or cells: E. coli BL21(DE3), T7 expression system
Description: After an initial pilot run (three plates, consisting of 960 randomly selected compounds), the primary screening of the subset plates was carried out at 20 µM in single point against OXA-48 enzyme in a nitrocefin-based assay, using the fluorescence-quenching readout. This enzymatic assay employs the cephalosporin nitrocefin as OXA-48 substrate and takes advantage of the fluorescent properties of white microtiter plates. Chromogenic nitrocefin is hydrolyzed by β-lactamases to yield a product with increased absorbance properties (~495 nm) that quenches the plate fluorescence by absorbing the plate’s emission light. In this assay, test compounds that inhibit OXA-48 catalytic activity are predicted to reduce nitrocefin quenching of plate fluorescence, resulting in a quantitative increase in well fluorescence (ON-system for inhibitors). The nitrocefin-based epi-absorbance readout system has been successfully applied in HTS campaigns on other β-lactamases, such as IMP-1 and VIM-2, with the identification of inhibitors belonging to novel scaffolds displaying a favourable degree of selectivity and sub-micromolar potency.
The screening results were expressed as activity percent. […] Overall, the primary assay robustness was good, with Robust Z Prime factor (RZ′) equal to 0.86.
In total, 256 active molecules (125 from the subset and 131 from the full set) were then assayed in dose–response at eight concentrations from 60 to 0.002 µM with interplate triplicate data points.
The blaOXA gene coding for the OXA-48 ß-lactamase, originally cloned from the K. pneumonia 11978 (a clinical isolate from Istanbul Faculty Hospital, Istanbul, Turkey) was overexpressed via a T7 expression system in E. coli BL21(DE3), and its product, native protein, (final yield of 30 mg/L of culture) was subjected to several purification steps, including ion-exchange chromatography with Q-Sepharose and 20 mM Tris-HCl buffer (pH 9.0), followed by chromatography with S-Sepharose columns and 100 mM sodium phosphate buffer (pH 5.8). Elution of the beta-lactamase was performed with a K2SO4 gradient. Peaks of beta-lactamase activity were concentrated and were dialyzed with 100 mM phosphate buffer (pH 7.0). The OXA-48 enzyme was purified to homogeneity (with a degree of purity around 95.4%.)-as measured by 12% SDS PAGE [23]. OXA-48 protein stock solution (2 mg/mL) was finally prepared in 20 mM Hepes (pH 8,1). OXA-48 β-lactamase specific activity was measured by following the hydrolysis of 100 μM nitrocefin (ε: 17,000 M-1 cm^−1 at 482 nm; Δε: 15,000 M-1 cm^−1 at 482 nm) and corresponding to 60.45 μmoles min^−1 mg^−1 of OXA-48 (kcat = 28.85 s^−1) enzyme. A MW of 28,147 g/mol, calculated from the enzyme sequence was confirmed by MALDI-TOF analysis with a Mass error of ± 2.8 Da.
The primary assay was developed to monitor the enzymatic activity of OXA-48 taking advantage of the spectroscopic properties of white microtiter plates (Optiplate-384, PerkinElmer, #6007290), as indicated by Zuck et al.. Nitrocefin is chromogenic substrate for beta-lactamases with λmax = 395 nm (yellow). Upon hydrolysis by OXA-48, nitrocefin yields (2R)-2-[(R)-carboxy[2-(thiophen-2-yl)acetamido]methyl]-5-[(E)-2-(2,4-dinitrophenyl)ethenyl]-3,6-dihydro-2H-1,3-thiazine-4-carboxylic acid, with increased absorbance properties at λmax = 495 nm. Spectroscopic features of the reaction product are exploited to quench the plate intrinsic fluorescence by absorbing the plate’s emission light, which can be monitored by exciting the reaction at 485 nm and recording the emission at 520 nm. Therefore, the primary assay for HTS was an ON-assay, in which compounds targeting OXA-48 were predicted to elicit an increase of the fluorescence signal.
The primary assay was performed in reaction buffer (20 mM Hepes pH 8.0, 12.5 mM NaCl, 0.005% BSA, 0.0005% Brij-35) in the presence of 0.0014 ng/µL OXA-48 and 25 µM nitrocefin in a final volume of 20 µL/well in 384 MTP format. […]

T1 sequence (Q6XEC0 23-265, looked up): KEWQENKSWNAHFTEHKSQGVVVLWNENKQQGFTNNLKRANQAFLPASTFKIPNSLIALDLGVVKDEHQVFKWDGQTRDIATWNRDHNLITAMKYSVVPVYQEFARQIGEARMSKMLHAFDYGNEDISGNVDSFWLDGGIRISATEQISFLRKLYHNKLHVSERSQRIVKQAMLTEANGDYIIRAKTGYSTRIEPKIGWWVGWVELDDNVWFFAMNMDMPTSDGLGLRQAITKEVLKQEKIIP

With `CCc1ccc(-c2n[nH]c3nc(-c4cccc(C(=O)O)c4)cc(C(=O)O)c23)cc1` [Compound 3, 6-(3-Carboxyphenyl)-3-(4-ethylphenyl)-1H-pyrazolo[3,4-b]pyridine-4-carboxylic acid] the “fold loss in potency/activity versus parent compound” value was 17 fold.

For `O=C(O)c1ccc(/C=N/n2cnnc2S)cc1` [ID6], the “fold loss in potency/activity versus parent compound” value was “more than 20 fold”.

same assay, conditions: dose–response, median of triplicate wells; 15 min preincubation, 25 µM nitrocefin

First: O=C(O)c1ccc(/C=N/n2c(S)nnc2-c2ccc(Cl)cc2Cl)cc1 [ID4]
Second: COC(=O)c1ccc(/C=N/n2c(S)nnc2-c2ccccc2)cc1 [ID9]
The AC50 of the first is 11-fold lower: 3.17 µM for the first, 35.6 µM for the second.

First: Sc1nnc(-c2ccccc2)n1/N=C/c1cccs1 [ID23]
Second: N#Cc1ccc(/C=N/n2c(S)nnc2-c2ccccc2)cc1 [ID11]
The AC50 of the first is 2.1-fold higher: 24.8 µM for the first, 12 µM for the second.

Going from `CCc1ccc(-c2n[nH]c3nc(-c4ccc(C(=O)O)cc4F)cc(C(=O)O)c23)cc1` [Compound 2, 6-(4-Carboxy-2-fluorophenyl)-3-(4-ethylphenyl)-1H-pyrazolo[3,4-b]pyridine-4-carboxylic acid] to `CCc1ccc(-c2n[nH]c3nc(-c4cccc(C(=O)O)c4)cc(C(=O)O)c23)cc1` [Compound 3, 6-(3-Carboxyphenyl)-3-(4-ethylphenyl)-1H-pyrazolo[3,4-b]pyridine-4-carboxylic acid], the AC50 rises from 1.48 µM to 16.8 µM (11-fold).

Compared with `CCc1ccc(-c2n[nH]c3nc(-c4cc(Cl)c(O)c(OC)c4)cc(C(=O)O)c23)cc1` [Compound 8, 6-(3-Chloro-4-hydroxy-5-methoxyphenyl)-3-(4-ethylphenyl)-1H-pyrazolo[3,4-b]pyridine-4-carboxylic acid], `CCc1ccc(-c2n[nH]c3nc(-c4cc(F)c(O)c(F)c4)cc(C(=O)O)c23)cc1` [Compound 6, 6-(3,5-Difluoro-4-hydroxyphenyl)-3-(4-ethylphenyl)-1H-pyrazolo[3,4-b]pyridine-4-carboxylic acid] is 1.8-fold higher in AC50: 13.7 µM for the first, 24.4 µM for the second.

Compared with `CCc1ccc(-c2n[nH]c3nc(-c4ccccc4)cc(C(=O)O)c23)cc1` [ID30], `CCc1ccc(-c2n[nH]c3nc(-c4ccc(CC(=O)O)cc4)cc(C(=O)O)c23)cc1` [Compound 4, 6-(4-(Carboxymethyl)phenyl)-3-(4-ethylphenyl)-1H-pyrazolo[3,4-b]pyridine-4-carboxylic acid] is 52-fold lower in AC50: 249 µM for the first, 4.78 µM for the second.

Going from `O=C(O)c1ccc(/C=N/n2c(S)nnc2C2CCCCC2)cc1` [ID5] to `O=C(O)c1ccc(/C=N/n2cnnc2S)cc1` [ID6], the AC50 rises from 2.88 µM to 15.7 µM (5.5-fold).

First: CCc1ccc(-c2n[nH]c3nc(-c4cc(F)c(O)cc4F)cc(C(=O)O)c23)cc1 [Compound 5, 6-(2,5-Difluoro-4-hydroxyphenyl)-3-(4-ethylphenyl)-1H-pyrazolo[3,4-b]pyridine-4-carboxylic acid]
Second: CCc1ccc(-c2n[nH]c3nc(-c4ccc(O)c(F)c4F)cc(C(=O)O)c23)cc1 [Compound 7, 6-(2,3-Difluoro-4-hydroxyphenyl)-3-(4-ethylphenyl)-1H-pyrazolo[3,4-b]pyridine-4-carboxylic acid]
The AC50 of the first is 3.2-fold lower: 16.2 µM for the first, 51.2 µM for the second.

`CCc1ccc(-c2n[nH]c3nc(-c4ccc(C(=O)O)cc4)cc(CO)c23)cc1` [Compound 12, 4-(3-(4-Ethylphenyl)-4-(hydroxymethyl)-1H-pyrazolo[3,4-b]pyridin-6-yl)benzoic acid] and `CCc1ccc(-c2n[nH]c3nc(-c4ccc(C(=O)O)cc4)cc(C(F)(F)F)c23)cc1` [Compound 11, 4-(3-(4-Ethylphenyl)-4-(trifluoromethyl)-1H-pyrazolo[3,4-b]pyridin-6-yl)benzoic acid] cannot be ordered by AC50: > 100 µM for the first, > 100 µM for the second.

`CCc1ccc(-c2n[nH]c3nc(-c4ccc(C(=O)O)cc4)ccc23)cc1` [Compound 10, 4-(3-(4-Ethylphenyl)-1H-pyrazolo[3,4-b]pyridin-6-yl)benzoic acid] was tested, and the AC50 was > 100 µM.

With `CCc1ccc(-c2n[nH]c3nc(-c4ccccc4)cc(C(=O)O)c23)cc1` [ID30] the “OXA-48 AC50” value was “inactive”.
`CCc1ccc(-c2n[nH]c3nc(-c4ccccc4O)cc(C(=O)O)c23)cc1` [ID31] was tested, and the “OXA-48 AC50” value was “inactive”.
For `CCc1ccc(-c2n[nH]c3nc(-c4ccc(C(=O)O)cc4)cc(C(N)=O)c23)cc1` [Compound 14, 4-(4-Carbamoyl-3-(4-ethylphenyl)-1H-pyrazolo[3,4-b]pyridin-6-yl)benzoic acid], the “OXA-48 AC50” value was “complete loss of activity”.
`CCc1ccc(-c2n[nH]c3nc(-c4ccc(C(=O)O)cc4)cc(CO)c23)cc1` [Compound 12, 4-(3-(4-Ethylphenyl)-4-(hydroxymethyl)-1H-pyrazolo[3,4-b]pyridin-6-yl)benzoic acid] was tested, and the “OXA-48 AC50” value was “complete loss of activity”.
